A short description of assay [1]: Antioxidant effect in lipids: peroxide value of butter. The note with it: 150 ppm. The procedure:
5 parts of chicken oil and butter were taken respectively, each of which is 100 grams. Each 3 groups of chicken oil experimental groups and butter experimental groups were set up, and the composition of Example 6 was added according to the addition amount of 4, 6 and 8 ppm respectively; each 1 group of chicken oil control group and butter control group were set up, and ethoxyquin was added in an addition amount of 150 ppm; each 1 group of chicken oil blank group and butter blank group were set up, without adding any additives. The additives in each group were mixed evenly with the lipid, placed in a constant temperature incubator at 40° C., and samples were taken at 0, 3, 7, 14, 21 and 28 days to determine their peroxide value.

Assay [2] in a line: Antioxidant effect in fish oil powder (peroxide value). Conditions: 40° C., 28 days; for Peroxide value of fish oil powder with an addition amount of 10 ppm: 10 ppm (based on active ingredients); for Peroxide value of fish oil powder with an addition amount of 100 ppm: 100 ppm (based on active ingredients). The procedure:
After the antioxidant and fish oil powder were evenly mixed, the resultants were placed in an incubator at 40° C., and samples were taken in 28 days to measure the peroxide value.

Assay [3] in a line: Determination of hydroxyl radical scavenging ability (salicylic acid method). The class given is biochemical. Conditions: 37° C., 15 min, 510 nm. The procedure:
(§1) Each of the composition of Examples 9-17, as well as single-component quercetagetin, 6-hydroxykaempferol, patuletin was taken, and the detection of DPPH and hydroxyl radical scavenging ability was performed. The specific test methods are as follows.
[…], 6-hydroxykaempferol, patuletin, and compositions 9-17 were used to prepare sample solutions with concentrations of 100, 150, 200, 250, 300 μg/ml in absolute ethanol. 9 mmol/L salicylic acid-ethanol solution, 9 mmol/L FeSO4 solution and 8.8 mmol/L H2O2 solution were prepared. Then, different samples were added according to the order in the following table, and placed in a water bath at 37° C. for 15 min, and the absorbance at 510 nm was measured.

Assay [4] is described as follows: Determination of DPPH free radical scavenging ability. Format: biochemical. The note with it: absolute ethanol, 30° C., 30 min, 517 nm. The procedure: as §1
Quercetin, 6-hydroxykaempferol, patuletin, and compositions 9-17 were used to prepare sample solutions with concentrations of 1, 2, 3, 4, 5, and 6 μg/ml in absolute ethanol. Then, DPPH was prepared into a 2×10^−4 mol/L solution with absolute ethanol, and 2 mL of blank and sample solution were accurately absorbed and mixed with 2 mL of DPPH solution, respectively, the resultants were placed in a water bath at 30° C. in the dark for 30 min, and the absorbance A (blank) and Asample (sample) were measured at the wavelength of 517 nm.

For `CCOc1ccc2c(c1)C(C)=CC(C)(C)N2` [Ethoxyquin, ethoxyquin], the peroxide value of butter in assay [1] (Day 0, 40° C.) turned out to be 1.41 ± 0.15 mmol/kg; in assay [1] (Day 3, 40° C.), 1.44 ± 0.142 mmol/kg; in assay [1] (Day 7, 40° C.), 1.62 ± 0.104 mmol/kg; in assay [1] (Day 14, 40° C.) it was 1.66 ± 0.075 mmol/kg; in assay [1] (Day 21, 40° C.), 1.82 ± 0.1 mmol/kg; in assay [1] (Day 28, 40° C.) it was 2.02 ± 0.197 mmol/kg.

`O=c1c(O)c(-c2ccc(O)cc2)oc2cc(O)c(O)c(O)c12` [6-hydroxykaempferol]: in assay [2], the Peroxide value of fish oil powder with an addition amount of 10 ppm is 142 mmol/kg and the Peroxide value of fish oil powder with an addition amount of 100 ppm turned out to be 121 mmol/kg. In addition, the “Hydroxyl radical scavenging ability (IC50 μg/ml), half clearance” value (from here on “Hydroxyl radical scavenging ability”) in assay [3] is 500 µg/mL. The “DPPH (IC50 μg/ml), half clearance” value in assay [4] is 23.62 µg/mL.

Take `O=c1c(O)c(-c2ccc(O)c(O)c2)oc2cc(O)c(O)c(O)c12` [Quercetagetin, 3,3,4,5,6,7-hexahydroxyflavone]: in assay [2], the Peroxide value of fish oil powder with an addition amount of 10 ppm is 76.5 mmol/kg and the Peroxide value of fish oil powder with an addition amount of 100 ppm was 57.3 mmol/kg. Further, in assay [3], the “Hydroxyl radical scavenging ability” value was 412 µg/mL. Moreover, the “DPPH (IC50 μg/ml), half clearance” value in assay [4] turned out to be 14.82 µg/mL.

`COc1c(O)cc2oc(-c3ccc(O)c(O)c3)c(O)c(=O)c2c1O` [Patuletin, patuletin]: in assay [2], the Peroxide value of fish oil powder with an addition amount of 10 ppm was determined as 120 mmol/kg and the Peroxide value of fish oil powder with an addition amount of 100 ppm is 109 mmol/kg. In addition, in assay [3], the “Hydroxyl radical scavenging ability” value came out at 595 µg/mL. The “DPPH (IC50 μg/ml), half clearance” value in assay [4] stood at 31.98 µg/mL.

For the origin of these results see US12514266B2, “Composition containing quercetagetin” (Chenguang Biotech Group Co., Ltd., priority 2020, dated 2026).
